The structures appear in SMILES notation. A value given as a limit tells only on which side of the number the result lay.

As a reminder, the IC50 is the concentration that inhibits the measured activity by half.

Experiment [1] has as its target Recombinant wild type LRRK2 protein (Homo sapiens (Human), UniProt Q5S007). Briefly: LRRK2 kinase activity, LanthaScreen TR-FRET assay (wild type). The experiment is classed as biochemical. The conditions noted are these: LRRKtide 400 nM, 25 μM ATP, 60 min; read-out: LRRK2 WT IC50. In short, it runs like this:
(§1)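 Recombinant human wild-type or G2019S LRRK2 phosphorylated fluorescein-labelled LRRKtide (ERM-based) with ATP and serially diluted compound for 60 min at room temperature.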
(TR-FRET usually uses a lanthanide donor and a delayed reading to cut background.)

In experiment [2] the target is Recombinant G2019S-LRRK2 protein (Homo sapiens (Human), UniProt Q5S007, G2019S). Briefly: LRRK2 kinase activity, LanthaScreen TR-FRET assay (G2019S). The experiment is classed as biochemical. The conditions noted are these: LRRKtide 400 nM, 25 μM ATP, 60 min. In short, it runs like this: as §1
Sequence of Recombinant G2019S-LRRK2 protein (Q5S007 whole entry G2019S): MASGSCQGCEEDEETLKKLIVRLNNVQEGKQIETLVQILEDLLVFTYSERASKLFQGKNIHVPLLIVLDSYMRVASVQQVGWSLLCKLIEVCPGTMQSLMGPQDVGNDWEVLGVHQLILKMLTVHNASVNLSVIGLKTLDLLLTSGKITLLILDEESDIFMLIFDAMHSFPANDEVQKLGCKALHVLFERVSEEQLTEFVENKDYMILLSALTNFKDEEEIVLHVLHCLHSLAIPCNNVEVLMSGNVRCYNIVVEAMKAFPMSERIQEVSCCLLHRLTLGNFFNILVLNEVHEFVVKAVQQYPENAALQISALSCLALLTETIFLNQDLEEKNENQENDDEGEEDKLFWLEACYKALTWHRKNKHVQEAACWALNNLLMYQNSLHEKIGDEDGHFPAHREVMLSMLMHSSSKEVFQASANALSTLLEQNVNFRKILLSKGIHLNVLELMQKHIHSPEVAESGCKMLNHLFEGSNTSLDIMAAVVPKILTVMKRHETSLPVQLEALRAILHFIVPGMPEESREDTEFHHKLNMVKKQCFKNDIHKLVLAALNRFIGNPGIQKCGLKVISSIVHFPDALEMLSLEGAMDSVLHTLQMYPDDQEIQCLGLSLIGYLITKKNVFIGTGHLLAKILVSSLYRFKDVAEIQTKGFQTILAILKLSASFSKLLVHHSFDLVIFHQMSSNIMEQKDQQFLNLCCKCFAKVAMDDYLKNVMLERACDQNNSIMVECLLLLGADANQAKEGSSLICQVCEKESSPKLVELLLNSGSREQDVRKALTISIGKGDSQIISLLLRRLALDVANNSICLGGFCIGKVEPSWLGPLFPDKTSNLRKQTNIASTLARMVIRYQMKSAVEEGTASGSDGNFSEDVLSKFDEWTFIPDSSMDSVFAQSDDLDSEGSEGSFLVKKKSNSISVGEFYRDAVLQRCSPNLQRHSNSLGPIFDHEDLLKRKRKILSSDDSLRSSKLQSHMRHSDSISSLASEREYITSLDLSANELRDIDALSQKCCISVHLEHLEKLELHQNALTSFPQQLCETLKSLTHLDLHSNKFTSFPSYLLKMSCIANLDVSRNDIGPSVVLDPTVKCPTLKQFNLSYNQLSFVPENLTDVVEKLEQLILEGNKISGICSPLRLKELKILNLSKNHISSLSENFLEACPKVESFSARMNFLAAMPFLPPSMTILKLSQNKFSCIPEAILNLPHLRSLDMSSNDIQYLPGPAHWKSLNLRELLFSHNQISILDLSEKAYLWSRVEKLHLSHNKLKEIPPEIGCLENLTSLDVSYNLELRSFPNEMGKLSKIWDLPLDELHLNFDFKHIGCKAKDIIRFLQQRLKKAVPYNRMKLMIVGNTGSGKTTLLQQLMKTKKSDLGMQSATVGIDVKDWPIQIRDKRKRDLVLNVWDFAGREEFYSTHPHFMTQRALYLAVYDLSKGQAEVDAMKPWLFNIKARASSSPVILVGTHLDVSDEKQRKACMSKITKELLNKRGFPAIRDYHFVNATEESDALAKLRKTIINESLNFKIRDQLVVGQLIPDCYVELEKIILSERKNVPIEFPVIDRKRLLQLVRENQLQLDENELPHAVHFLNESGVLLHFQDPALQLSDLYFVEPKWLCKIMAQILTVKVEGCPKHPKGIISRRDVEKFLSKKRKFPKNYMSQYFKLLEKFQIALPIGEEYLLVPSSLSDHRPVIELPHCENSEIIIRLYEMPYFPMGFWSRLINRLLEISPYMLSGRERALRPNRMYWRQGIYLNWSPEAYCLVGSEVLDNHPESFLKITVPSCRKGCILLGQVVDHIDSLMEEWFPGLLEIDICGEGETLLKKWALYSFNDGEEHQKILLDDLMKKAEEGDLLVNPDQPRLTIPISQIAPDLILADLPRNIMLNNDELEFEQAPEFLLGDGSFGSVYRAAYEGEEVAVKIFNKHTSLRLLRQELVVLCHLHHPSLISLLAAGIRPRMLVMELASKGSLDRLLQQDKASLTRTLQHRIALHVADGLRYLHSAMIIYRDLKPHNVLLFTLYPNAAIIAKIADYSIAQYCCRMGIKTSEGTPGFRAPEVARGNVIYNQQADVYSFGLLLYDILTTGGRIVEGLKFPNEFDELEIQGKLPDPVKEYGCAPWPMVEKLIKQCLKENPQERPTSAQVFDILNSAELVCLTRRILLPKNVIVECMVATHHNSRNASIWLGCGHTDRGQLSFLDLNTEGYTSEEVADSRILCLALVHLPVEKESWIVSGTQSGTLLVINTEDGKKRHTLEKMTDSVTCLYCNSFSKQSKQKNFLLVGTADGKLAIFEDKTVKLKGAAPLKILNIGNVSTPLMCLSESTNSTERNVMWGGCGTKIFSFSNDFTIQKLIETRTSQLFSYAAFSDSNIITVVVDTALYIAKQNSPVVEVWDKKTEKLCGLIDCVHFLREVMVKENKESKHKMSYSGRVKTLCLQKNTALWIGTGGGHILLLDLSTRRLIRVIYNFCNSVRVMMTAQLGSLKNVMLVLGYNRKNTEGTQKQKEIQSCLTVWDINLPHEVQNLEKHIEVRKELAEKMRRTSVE

Sequence of Recombinant wild type LRRK2 protein (Q5S007 whole entry): as the sequence (Q5S007 whole entry G2019S) above, with S2019G counted along it

In the case of `Cc1c(C#N)cnc(C(=O)Nc2cc(F)c3[nH]ncc3c2)c1C` [Example 314, 5-Cyano-N-(7-fluoro-1H-indazol-5-yl)-3,4-dimethylpicolinamide], the values for the IC50 in experiment [1] and in experiment [2] were 1000 to 10000 nM and 100 to 1000 nM, respectively.

On to `CCc1c(C#N)cccc1C(=O)Nc1ccc2[nH]nc(-c3ccoc3)c2c1` [Example 75, 3-Cyano-2-ethyl-N-(3-(furan-3-yl)-1H-indazol-5-yl)benzamide], for which the IC50 in experiment [1] and in experiment [2] was less than 100 nM throughout.

For `N#Cc1ccc(F)c(C(=O)Nc2ccc3[nH]nc(-c4cnn(C(F)F)c4)c3c2)c1F` [Example 163, 3-Cyano-N-(3-(1-(difluoromethyl)-1H-pyrazol-4-yl)-1H-indazol-5-yl)-2,6-difluorobenzamide], the IC50 in experiment [1] and in experiment [2] was less than 100 nM in each case.

In the case of `COc1c(C#N)cccc1C(=O)Nc1ccc2[nH]nc(-c3cnn(C(F)F)c3)c2c1` [Example 164, 3-Cyano-N-(3-(1-(difluoromethyl)-1H-pyrazol-4-yl)-1H-indazol-5-yl)-2-methoxybenzamide], the IC50 in experiment [1] and in experiment [2] was less than 100 nM throughout.

As for `Cc1nc(C(=O)Nc2ccc3[nH]nc(C4CC4)c3c2)c(Cl)c(C)c1C#N` [Example 283, 3-chloro-5-cyano-N-(3-cyclopropyl-1H-indazol-5-yl)-4,6-dimethylpicolinamide], the values for the IC50 in experiment [1] and in experiment [2] were 100 to 1000 nM and less than 100 nM, respectively.

Consider `N#Cc1ccc(C(=O)Nc2ccc3[nH]nc(-c4ccoc4)c3c2)c(I)c1` [Example 4, 4-Cyano-N-(3-(furan-3-yl)-1H-indazol-5-yl)-2-iodobenzamide], for which the IC50 in experiment [1] and in experiment [2] was less than 100 nM throughout.

Regarding `Cc1c(C#N)nn(C)c1C(=O)Nc1ccc2[nH]nc(-c3cnn(C(F)F)c3)c2c1` [Example 195, 3-Cyano-N-(3-(1-(difluoromethyl)-1H-pyrazol-4-yl)-1H-indazol-5-yl)-1,4-dimethyl-1H-pyrazole-5-carboxamide], the IC50 in experiment [1] and in experiment [2] was less than 100 nM in each case.

For the compound `N#Cc1cccc(C(=O)Nc2ccc3[nH]nc(-c4cnco4)c3c2)c1F` [Example 199, 3-Cyano-2-fluoro-N-(3-(oxazol-5-yl)-1H-indazol-5-yl)benzamide], the IC50 in experiment [1] and in experiment [2] was less than 100 nM each time.

On to `Cc1cc(-c2n[nH]c3ccc(NC(=O)c4ncc(C#N)cc4C)cc23)ccn1` [Example 74, 5-Cyano-3-methyl-N-(3-(2-methylpyridin-4-yl)-1H-indazol-5-yl)picolinamide], for which the IC50 in experiment [1] and in experiment [2] was less than 100 nM each time.

In the case of `Cc1c(C#N)cnc(C(=O)Nc2ccc3[nH]nc(-c4cncc(Cl)c4)c3c2)c1C` [Example 171, N-(3-(5-Chloropyridin-3-yl)-1H-indazol-5-yl)-5-cyano-3,4-dimethylpicolinamide], the IC50 in experiment [1] and in experiment [2] was less than 100 nM each time.

On to `Cc1nc(C(=O)Nc2ccc3[nH]nc(-c4ccoc4)c3c2)ccc1C#N` [Example 13, 5-Cyano-N-(3-(furan-3-yl)-1H-indazol-5-yl)-6-methylpicolinamide], for which the results for the IC50 in experiment [1] and in experiment [2] were 100 to 1000 nM and less than 100 nM, respectively.

Take `N#Cc1ccc(F)c(C(=O)Nc2ccc3[nH]nc(-c4cnco4)c3c2)c1F` [Example 188, 3-Cyano-2,6-difluoro-N-(3-(oxazol-5-yl)-1H-indazol-5-yl)benzamide]: the IC50 in experiment [1] and in experiment [2] was less than 100 nM in each case.

With `Cc1cc(C#N)c(Cl)nc1C(=O)Nc1ccc2[nH]nc(C)c2c1` [Example 307, 6-Chloro-5-cyano-3-methyl-N-(3-methyl-1H-indazol-5-yl)picolinamide], the IC50 was 100 to 1000 nM in experiment [1] and less than 100 nM in experiment [2].

`Cc1cc(C#N)cnc1C(=O)Nc1ccc2[nH]nc(-c3ccnc(N4C[C@H](C)C[C@H](C)C4)c3)c2c1` [Example 117, 5-Cyano-N-(3-(2-((3R,5S)-3,5-dimethylpiperidin-1-yl)pyridin-4-yl)-1H-indazol-5-yl)-3-methylpicolinamide]: the IC50 in experiment [1] was 100 to 1000 nM; in experiment [2] it was less than 100 nM.

On to `Cc1c(C#N)cnc(C(=O)Nc2ccc3[nH]nc(-c4cnc(C(C)C)o4)c3c2)c1C` [Example 181, 5-Cyano-N-(3-(2-isopropyloxazol-5-yl)-1H-indazol-5-yl)-3,4-dimethylpicolinamide], for which the IC50 in experiment [1] and in experiment [2] was less than 100 nM throughout.

Regarding `Cc1c(C#N)cnc(C(=O)Nc2ccc3[nH]nc(/C=C/c4ccccn4)c3c2)c1C` [Example 248, (E)-5-Cyano-3,4-dimethyl-N-(3-(2-(pyridin-2-yl)vinyl)-1H-indazol-5-yl)picolinamide], the IC50 in experiment [1] and in experiment [2] was less than 100 nM throughout.

For `Cc1cc(C#N)cnc1C(=O)Nc1ccc2[nH]nc(-c3cscn3)c2c1` [Example 156, 5-Cyano-3-methyl-N-(3-(thiazol-4-yl)-1H-indazol-5-yl)picolinamide], the IC50 in experiment [1] and in experiment [2] was 100 to 1000 nM in each case.

Regarding `COc1cc(C#N)cnc1C(=O)Nc1ccc2[nH]nc(-c3ccoc3)c2c1` [Example 69, 5-Cyano-N-(3-(furan-3-yl)-1H-indazol-5-yl)-3-methoxypicolinamide], the IC50 in experiment [1] is 100 to 1000 nM; in experiment [2], less than 100 nM.

`Cc1ncc(C#N)nc1C(=O)Nc1ccc2[nH]nc(-c3ccoc3)c2c1` [Example 147, 6-Cyano-N-(3-(furan-3-yl)-1H-indazol-5-yl)-3-methylpyrazine-2-carboxamide]: the IC50 in experiment [1] and in experiment [2] was less than 100 nM throughout.

Consider `Cc1c(C#N)cnc(C(=O)Nc2ccc3[nH]nc(C4CC4(C)C)c3c2)c1C` (centres unmarked) [Example 257, 5-Cyano-N-(3-(2,2-dimethylcyclopropyl)-1H-indazol-5-yl)-3,4-dimethylpicolinamide], for which the IC50 in experiment [1] and in experiment [2] was 1000 to 10000 nM throughout.

As to `Cc1ccc(C#N)c(F)c1C(=O)Nc1ccc2[nH]nc(-c3ccoc3)c2c1` [Example 128, 3-Cyano-2-fluoro-N-(3-(furan-3-yl)-1H-indazol-5-yl)-6-methylbenzamide], the concentration for half-maximal inhibition (IC50) in experiment [1] and in experiment [2] was less than 100 nM in each case.

Consider `Cc1cc(C#N)cnc1C(=O)Nc1ccc2[nH]nc(-c3cnn(C(F)F)c3)c2c1` [Example 32, 5-Cyano-N-(3-(1-(difluoromethyl)-1H-pyrazol-4-yl)-1H-indazol-5-yl)-3-methylpicolinamide], for which the IC50 is 100 to 1000 nM in experiment [1] and less than 100 nM in experiment [2].

On to `Cc1c(C#N)cnc(C(=O)Nc2ccc3[nH]nc([C@@H]4CC4c4ccccc4)c3c2)c1C` (stereo partly drawn) [Example 252, 5-Cyano-3,4-dimethyl-N-(3-((1R)-2-phenylcyclopropyl)-1H-indazol-5-yl)picolinamide], for which the IC50 was 100 to 1000 nM in experiment [1] and less than 100 nM in experiment [2].

Take `Cc1c(C#N)cnc(C(=O)Nc2ccc3[nH]nc(-c4cn(C)nn4)c3c2)c1C` [Example 240, 5-Cyano-3,4-dimethyl-N-(3-(1-methyl-1H-1,2,3-triazol-4-yl)-1H-indazol-5-yl)picolinamide]: the IC50 was 100 to 1000 nM in experiment [1] and less than 100 nM in experiment [2].

On to `COc1cc(-c2n[nH]c3ccc(NC(=O)c4ccnc(C#N)c4F)cc23)ccn1` [Example 170, 2-Cyano-3-fluoro-N-(3-(2-methoxypyridin-4-yl)-1H-indazol-5-yl)isonicotinamide], for which the 50% inhibitory concentration (IC50) is 100 to 1000 nM in experiment [1] and less than 100 nM in experiment [2].

Take `COc1cc(C#N)ccc1C(=O)Nc1ccc2[nH]nc(-c3ccoc3)c2c1` [Example 15, 4-Cyano-N-(3-(furan-3-yl)-1H-indazol-5-yl)-2-methoxybenzamide]: the IC50 in experiment [1] is 100 to 1000 nM; in experiment [2], less than 100 nM.

Regarding `CCc1c(C(=O)Nc2ccc3[nH]nc(-c4cnco4)c3c2)ccnc1C#N` [Example 232, 2-Cyano-3-ethyl-N-(3-(oxazol-5-yl)-1H-indazol-5-yl)isonicotinamide], the IC50 in experiment [1] and in experiment [2] was less than 100 nM each time.

As to `COc1c(C#N)ccc(C)c1C(=O)Nc1ccc2[nH]nc(C)c2c1` [Example 299, 3-Cyano-2-methoxy-6-methyl-N-(3-methyl-1H-indazol-5-yl)benzamide], the values for the IC50 in experiment [1] and in experiment [2] were 100 to 1000 nM and less than 100 nM, respectively.

`Cc1cc(C(=O)Nc2ccc3[nH]nc(-c4ccoc4)c3c2)ncc1C#N` [Example 94, 5-Cyano-N-(3-(furan-3-yl)-1H-indazol-5-yl)-4-methylpicolinamide]: the IC50 in experiment [1] was 100 to 1000 nM; in experiment [2] it was less than 100 nM.

As to `Cc1c(C#N)cnc(C(=O)Nc2ccc3[nH]nc(-c4ccn(C)c4)c3c2)c1C` [Example 186, 5-cyano-3,4-dimethyl-N-(3-(1-methyl-1H-pyrrol-3-yl)-1H-indazol-5-yl)picolinamide], the concentration for half-maximal inhibition (IC50) in experiment [1] and in experiment [2] was less than 100 nM in each case.

For the compound `Cc1c(C#N)cnc(C(=O)Nc2ccc3[nH]nc(-c4ccnc(N5CCOCC5)c4)c3c2)c1C` [Example 277, 5-Cyano-3,4-dimethyl-N-(3-(2-morpholinopyridin-4-yl)-1H-indazol-5-yl)picolinamide], the IC50 in experiment [1] and in experiment [2] was less than 100 nM each time.

As for `Cc1cc(C#N)cnc1C(=O)Nc1ccc2[nH]nc(-c3ccnc(N4C[C@@H](C)O[C@@H](C)C4)c3)c2c1` [Example 118, 5-Cyano-N-(3-(2-((2S,6R)-2,6-dimethylmorpholino)pyridin-4-yl)-1H-indazol-5-yl)-3-methylpicolinamide], the IC50 in experiment [1] and in experiment [2] was less than 100 nM each time.

For the compound `Cc1cc(C#N)cnc1C(=O)Nc1ccc2[nH]nc(Br)c2c1` [Example 106, N-(3-Bromo-1H-indazol-5-yl)-5-cyano-3-methylpicolinamide], the IC50 is 1000 to 10000 nM in experiment [1] and less than 100 nM in experiment [2].

As for `Cc1ccc(-c2n[nH]c3ccc(NC(=O)c4ncc(C#N)cc4C)cc23)o1` [Example 141, 5-Cyano-3-methyl-N-(3-(5-methylfuran-2-yl)-1H-indazol-5-yl)picolinamide], the IC50 in experiment [1] and in experiment [2] was less than 100 nM throughout.

(Values after US11427558B1, “Indazoles and azaindazoles as LRRK2 inhibitors” (ESCAPE Bio, Inc., priority 2019, dated 2022).)
